According to patent US20230092389A1, “UNIT DOSES, AEROSOLS, KITS, AND METHODS FOR TREATING HEART CONDITIONS BY PULMONARY ADMINISTRATION” (InCarda Therapeutics, Inc., priority 2017, published 2023):
Like-named read-outs stand apart in the source and are kept apart here.

Assays:
[1] = test system: dogs with induced atrial fibrillation; format: in vivo, dog; details: for cardiovascular effect when given by intratracheal instillation: summary of Example 2; for conversion of induced atrial fibrillation to normal sinus rhythm: pulmonary dose 0.25 mg/kg body weight
Method: Atrial Fibrillation Model: A venous catheter was placed in a peripheral vessel (i.e., cephalic) for administration of anesthetic. […] Following induction, animals were endotracheally intubated and mechanically ventilated (˜12 breaths/minute with a tidal volume of 200-300 mL). Subsequently, a cut-down on a jugular vein permitted introduction of a pacing lead into the right atrium. Transthoracic electrodes forming ECG lead II were placed. For test/vehicle article delivery, a 4F catheter was introduced through the trachea and wedged into a small airway, and a venous catheter was placed in a peripheral vessel (i.e., cephalic). […] Approximately 5 min after administration of this parasympathomimetic was started; the following experiments were performed: […] Observations were made for up to 10 minutes. […] Vehicle was only water.

[2] = test system: dogs with induced supraventricular tachycardia; assay: Induced supraventricular tachycardia (SVT) model, IT vs IV, anesthetized dogs (Example 2); format: in vivo, dog; details: for cardiovascular effect when given by intratracheal instillation: summary of Example 2
Method: Supraventricular Tachycardia Model:
A venous catheter was placed in a peripheral vessel (i.e., cephalic) for administration of anesthetic(s). For anesthesia induction, all animals were given a combination of diazepam (˜0.5 mg/kg) and ketamine (˜10 mg/kg) intravenously through this venous catheter. Anesthesia was sustained until completion of the study with an intravenous infusion of pentobarbital (5-15 mg/kg/hr). Following induction, animals were endotracheally intubated and mechanically ventilated (˜12 breaths/min with a tidal volume of 200-300 mL).
Subsequently, a cut-down on a jugular vein permitted the introduction of a pacing lead into the right atrium. Similarly, for arterial pressure monitoring, a solid-state micromanometer catheter (Millar Instruments) was advanced into the aortic root via a cut-down over an artery (e.g., femoral, carotid). Transthoracic electrodes forming ECG lead II was placed. For vehicle/test article delivery, a 4F catheter was introduced through the trachea and wedged into a small airway, and a venous catheter was placed in a peripheral vessel (i.e., cephalic).
Following instrumentation/hemodynamic stabilization (for at least 15 minutes), right atrial pacing (5-10 V, 40 Hz, 2 ms pulses) was established in order to induce supraventricular tachycardia (SVT); pacing and SVT was sustained throughout the duration of the experiments. Approximately 5 minutes after onset of SVT and while monitoring ECG/arterial pressure continuously, the animals were administered three escalating doses (one at a time) of a test article; each dose was delivered as a bolus (˜3 mL) directly into a small airway through the intratracheal catheter (IT). Following dosing, the heart-rate (HR) and arterial pressure response were monitored for 15 minutes.
Subsequently (once the response to three IT doses had been recorded), hemodynamic recovery was allowed for approximately 30 minutes, and the electrocardiographic/hemodynamic response to the highest test-article dose was re-evaluated; however, for comparison purposes, this dose was delivered intravenously (IV).
Overall, two groups/test-articles were studied, and up to two animals were assigned to each group (n=2/group): one group received esmolol HCL (0.5-1.0 mg/kg, ESM), while the other received adenosine (0.25-1.0 mg/kg, ADN); only one test article was administered to per animal.

physchem = details: water

CN(CCOc1ccc(NS(C)(=O)=O)cc1)CCc1ccc(NS(C)(=O)=O)cc1 [dofetilide]
heart rate ([1]; escalating pulmonary doses of 10-40 mcg/kg body weight): minor reduction in heart rate
effect on induced atrial fibrillation ([1]; pulmonary (IT) administration): marginally slowed the ventricular rate
cardiovascular effect when given by intratracheal instillation [1]: probable effect

COc1ccc([C@@H]2Sc3ccccc3N(CCN(C)C)C(=O)[C@@H]2OC(C)=O)cc1 [diltiazem]
mean arterial blood pressure (MAP) ([1]; dog, in vivo, 0.25 mg/kg): notable drop
PQ interval ([1]; pulmonary dose 0.25 mg/kg): prolonged the PQ interval
heart rate ([1]; pulmonary dose 0.25 mg/kg): slowed down but marginally
conversion of induced atrial fibrillation to normal sinus rhythm ([1]; 0.25 mg/kg): converted the induced atrial fibrillation to normal sinus rhythm
conversion of induced atrial fibrillation to normal sinus rhythm ([1]; listed as diltiazem HCl, 0.25 mg/kg): Afib converting after administration
cardiovascular effect when given by intratracheal instillation [1]: clear cardiovascular effect
comparison of pulmonary and IV routes ([2]; 0.25 mg/kg (FIGS. 14, 15)): comparable in all aspects
PR interval ([2]; IV or pulmonary, 0.25 mg/kg): prolonged the PR interval
timing of the electrophysiological change ([2]; IV vs pulmonary): comparable between IV and pulmonary
Mean Arterial Pressure (MAP) ([2]; dog, in vivo, iv, 0.25 mg/kg): dropped significantly in both cases
pH of solution in water (3.5 mg/mL solution): 6.7
appearance of solution (diltiazem hydrochloride 50 mg/ml, flecainide acetate 30 mg/ml in distilled water): clear with no visible particulate matter
solubility (physchem): > 90 mg/mL

Nc1ncnc2c1ncn2[C@@H]1O[C@H](CO)[C@@H](O)[C@H]1O [adenosine]
effect on the heart ([2]; administered via the lung): did not have any effect on the heart
cardiovascular effect when given by intratracheal instillation [2]: clear response was not observed

COC(=O)CCc1ccc(OCC(O)CNC(C)C)cc1 (stereo not shown) [esmolol]
AV block ([2]; 0.5 mg/kg via the lung (FIGS. 17, 18)): period of AV block induced
AV block ([2]; 0.75 mg/kg via the lung (FIG. 20)): period of AV block induced
PR intervals in the ECG traces ([2]; elevating doses, IT): prolonging the PR intervals
electrophysiological effects ([2]; higher dose 1.0 mg/kg): did not produce the same electrophysiological effects
AV block ([2]; lower doses, via the lung (IT)): 2nd degree AV block
cardiovascular effect when given by intratracheal instillation [2]: probable effect
drop in MAP ([2]; via the lung, any of the doses): did not cause a drop in MAP
